# Measured values: patent US4339580A, “Piperazinylalkoxyindanes and acid addition salts thereof” (Mitsubishi Chemical Industries, Limited, priority 1979, dated 1982)
# Where two headings read alike, the source gives them in different places.
# Tests used:
# [1] = test system: tail reaction induced by morphine; test: anti-morphine activity (suppression of tail reaction induced by 20 mg/kg i.p. morphine); format: in vivo, ddy male mice; conditions: Mus musculus, read-out: ED50 anti-morphine activity
# Description: (§1) As controls, chlorodiazepoxide which is known as an anti-anxiety agent or minor tranquilizer and a known Compound 40 were used. The results are summarized in terms of 50% effective dose (ED50, mg/kg P.O.) in Table 1 below.
# (§2) The animals used were ddy male mice (weighing 20 to 22 g) and they were tested for anti-fighting and anti-morphine actions as indications of anti-anxiety action. The anti-fighting activity of the test compound was evaluated by its suppressing or taming effect against fighting which was developed by applying an electric shock (28 V-DC, 4-5 mA, 3 min.) through a grid to the foot of the animal [R. E. Tedeschi, D. H. Tedeschi, A. Mucha, L. Cook, P. A. Mattis, E. J. Fellows, J. Pharmacol. exp. Therap., 125, 28 (1959)] The anti-morphine activity was evaluated according to the method of Takagi et al. by the suppressing effect against a tail reaction induced by administration of 20 mg/kg i.p. of morphine [H. Takagi, T. Kamioka, S. Kobayashi, Y. Suzuki and K. Tachikawa, Japanese J. of Pharmacology, 66, 107 (1970)].
# [2] = test system: fighting developed by electric shock; test: anti-fighting activity (suppressing or taming effect against electric foot shock induced fighting); format: in vivo, ddy male mice; conditions: Mus musculus, 0.05 h, read-out: ED50 taming effect
# Description: as §1, §2
# [3] = muscle relaxant action, traction test; format: in vivo, ddy male mice; conditions: Mus musculus, po, read-out: ED50 traction test
# Description: as §1, §2
# Muscle relaxant action was evaluated by a traction test [S. Courvoisier, R. Ducrot, L. Julou, "Psychotropic Drugs" Ed. by S. Garattini, V. Ghetti, p. 313 (Elsevier) 1957].
# [4] = LD50 (Litchfield-Wilcoxon method); conditions: mouse, in vivo, PO, mice
# Description: as §2
# The values for LD50 were calculated by the Litchfield-Wilcoxon method [J. T. Litchfield and F. Wilcoxon, J. Pharmacol. exp. Therap., 96, 99 (1949)].
# [5] = test system: anti-fighting and anti-morphine actions; test: anti-anxiety activity (anti-fighting and anti-morphine actions as indications); format: in vivo, ddy male mice; conditions: PO, mice; versus chlorodiazepoxide and Compound 40
# Description: as §1, §2
# [6] = PO, mice, morphine 20 mg/kg i.p.
# [7] = PO, mice, electric shock 28 V-DC, 4-5 mA, 3 min.
Structure (SMILES),"ED50 [1, 6] [mg/kg]","ED50 [2, 7] [mg/kg]",ED50 [3] [mg/kg],LD50 [4] [mg/kg],anti-anxiety activities compared with controls [5],ED50 ([1]; po) [mg/kg],ED50 ([2]; po) [mg/kg]
"Cc1cc2c(cc1OCCCN1CCN(c3ccccc3)CC1)CCC2 [Compound 24, 6-methyl-5-[3-(4-phenyl-1-piperazinyl)propoxy]indane]",16,8.5,46,> 2000,superior to those of chlorodiazepoxide and Compound 40,–,–
"Fc1ccc(N2CCN(CCCOc3cc4c(cc3F)CCC4)CC2)cc1 [Compound 19, 6-fluoro-5-{3-[4-(4-fluorophenyl)-1-piperazinyl]propoxy}indane]",12.5,1,17.5,> 2000,superior to those of chlorodiazepoxide and Compound 40,–,–
"O=C(CCCN1CCN(c2ccc(F)cc2)CC1)c1ccc2c(c1)CCC2 [Compound 40, reference compound]",15.5,20,57,1000 to 1500,–,–,–
Clc1cccc(N2CCN(CCCOc3ccc4c(c3)CCC4)CC2)c1 [Compound 17],15.5,12.6,45,> 2000,superior to those of chlorodiazepoxide and Compound 40,–,–
"CNC1=Nc2ccc(Cl)cc2C(c2ccccc2)=[N+]([O-])C1 [Chlorodiazepoxide, reference compound]",–,–,8.3,720,–,13,12.5
"Fc1ccc(N2CCN(CCCCOc3ccc4c(c3)CCC4)CC2)cc1 [Compound 5, 5-{4-[4-(4-fluorophenyl)-1-piperazinyl]butoxy}indane]",11.1,12,21.5,> 1100,superior to those of chlorodiazepoxide and Compound 40,–,–
"c1ccc(N2CCN(CCCOc3ccc4c(c3)CCC4)CC2)cc1 [Compound 1, 5-[3-(4-phenyl-1-piperazinyl)propoxy]indane]",6.3,6.6,14.1,> 1500,superior to those of chlorodiazepoxide and Compound 40,–,–
"Fc1ccc(N2CCN(CCCOc3ccc4c(c3)CCC4)CC2)cc1 [Compound 4, 5-{3-[4-(4-fluorophenyl)-1-piperazinyl]propoxy}indane]",6,7.5,28,> 2000,superior to those of chlorodiazepoxide and Compound 40,–,–
"Fc1cc2c(cc1OCCCN1CCN(c3cccc(Cl)c3)CC1)CCC2 [Compound 21, 6-fluoro-5-{3-[4-(3-chlorophenyl)-1-piperazinyl]propoxy}indane]",13.8,14.5,88,1500 to 2000,superior to those of chlorodiazepoxide and Compound 40,–,–
"Fc1cc2c(cc1OCCCN1CCN(c3ccccc3)CC1)CCC2 [Compound 18, 6-fluoro-5-[3-(4-phenyl-1-piperazinyl)propoxy]indane]",10.6,2.9,14.5,> 2000,superior to those of chlorodiazepoxide and Compound 40,–,–
"COc1cc2c(cc1OCCCN1CCN(c3ccc(F)cc3)CC1)CCC2 [Compound 30, 6-methoxy-5-{3-[4-(4-fluorophenyl)-1-piperazinyl]propoxy}indane]",10.2,13,12.5,> 1000,superior to those of chlorodiazepoxide and Compound 40,–,–
